Source: paper PMC12091851, “Replacing a Cereblon Ligand by a DDB1 and CUL4 Associated Factor 11 (DCAF11) Recruiter Converts a Selective Histone Deacetylase 6 PROTAC into a Pan‐Degrader” (Chemmedchem, 2025)

Biological target: HDAC1 (Homo sapiens, UniProt Q13547)
Assay: Simple Western immunoassay, HDAC1 levels in U-87MG cell lysates
Type: cell-based
Design: endogenous in cells; host or cells: MM.1S
Conditions: 10 μM, 24 h
Description: Figure S5. Analysis of HDAC1 and 6 degradation in U-87MG cells. Simple western immunoassay analysis of U-87MG cell lysates. The cells were treated with the indicated compound (10 µM) or vehicle (DMSO) for 24 h. Top: Quantification of HDAC levels, presented as mean ± standard deviation of n = 2 biological replicates; Significance compared to vehicle: ns = p≥0.05 and *** = p≤0.001. Bottom:
Representative images of n = 2 biological replicates.
(1 picture or pasted object on this page, not shown here)
2. Biological Experiments
No unexpected or unusually high safety hazards were encountered.
The human multiple myeloma cell line MM.1S (CRL-2974) was obtained from American Type Culture Collection (ATCC, Manassas, VA, USA). […]
Louis, MO, USA) according to manufacturer´s instructions. Protein content was determined by Pierce™ BCA Protein Assay Kit (Catalog# 23225, Thermo Fisher Scientific Inc.) according to manufacturer´s guidelines. […]
Fluorescence Separation 8x25 Capillary Cartridges (Catalog# SM-FL004-1, Protein Simple, Bio-Techne, Minneapolis, MN, USA) were used for separation and the Anti-Mouse Detection Module (Catalog# DM-002, Protein Simple) was used for detection with addition of 20x Anti-Rabbit HRP […]
Conjugate (Catalog# 043-426, Protein Simple) according to manufacturer´s instructions. […] Evaluation and quantification was performed with the compass software (6.2.0, Protein Simple). […]

HDAC1, sequence (Q13547 whole entry): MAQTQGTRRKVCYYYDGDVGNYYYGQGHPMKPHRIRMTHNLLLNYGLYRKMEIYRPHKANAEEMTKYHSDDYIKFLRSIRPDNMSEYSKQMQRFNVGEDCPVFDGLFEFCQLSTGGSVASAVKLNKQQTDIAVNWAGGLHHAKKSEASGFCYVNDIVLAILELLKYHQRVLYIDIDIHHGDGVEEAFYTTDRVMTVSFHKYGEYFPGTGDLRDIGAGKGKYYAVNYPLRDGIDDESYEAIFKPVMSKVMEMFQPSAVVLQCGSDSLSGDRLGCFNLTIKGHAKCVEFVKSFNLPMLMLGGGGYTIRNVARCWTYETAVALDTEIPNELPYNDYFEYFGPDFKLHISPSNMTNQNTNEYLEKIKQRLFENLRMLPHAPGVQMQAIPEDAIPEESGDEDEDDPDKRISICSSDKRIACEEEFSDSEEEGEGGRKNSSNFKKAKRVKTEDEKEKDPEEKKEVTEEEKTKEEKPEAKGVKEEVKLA

| SMILES | HDAC1 degradation in U-87MG cells |
| --- | --- |
| O=C(CCCCCCNC(=O)c1ccc(NC(=O)CCCCCCCCCCCN(C(=O)CCl)C(C(=O)NCc2ccccc2)c2ccc(Cl)c(Cl)c2)cc1)NO (centres unmarked) [Compound 1j] | significant HDAC1 and 6 degradation |
| O=C(CCCCCCNC(=O)c1ccc(N(C(=O)CCl)C(C(=O)NCc2ccccc2)c2ccc(Cl)c(Cl)c2)cc1)NO (centres unmarked) [Compound 2] | significant degradation for HDAC1 |
